Reference: patent US10870876B2, “Method for detecting a presence or absence of at least one first zone of inhibition” (BIOMÉRIEUX, priority 2015, dated 2020)

Test system: Escherichia coli ATCC 35218
Test: Etest strip MIC, deposition of the sample in droplets along the strip
Type: cell-based

Q: What does the source list for gentamicin?
A: MIC (Table 2, droplet, ATCC 35218, 0.01 McF, 4 H): 1.3 µg/mL; MIC (Table 2, droplet, ATCC 35218, 0.01 McF, 5 H): 1.3 µg/mL; MIC (Table 2, droplet, ATCC 35218, 0.1 McF, 4 H): 2 µg/mL; MIC (Table 2, droplet/replicate 2, ATCC 35218, 0.5 McF, 4 H): 2 µg/mL
